ChEMBL document CHEMBL1201862, “PubChem BioAssay data set” (2004)
Calls of active or inactive are those of the source.

Assays:
[1] = OV-90 cell viability loss – plate reader, dry powder, SA8, PAX8 inhibitor project, dose response (AID 743149); assay type: functional, cell-based
[2] = COV362 cell viability loss – plate reader, dry powder, SA12, cytotoxicity control for PAX8 inhibitor project, dose response (AID 743144); assay type: functional, cell-based
[3] = OVCAR4 cell viability loss – plate reader, dry powder, SA11, cytotoxicity control for PAX8 inhibitor project, dose response (AID 743150); assay type: functional, cell-based; conditions: OVCAR-4
[4] = target: Paired box protein Pax-8 (Homo sapiens, UniProt Q06710); test: PAX8 transcriptional activity inhibition in RMG-I – RMG-I cells, luciferase, cherry-pick, dose response (AID 687027); assay type: functional, cell-based;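 also: luciferase reporter driven by Pax8 target thyroperoxidase promoter measured by SteadyGlo luminescence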
Sequence of Paired box protein Pax-8 (Q06710 whole entry): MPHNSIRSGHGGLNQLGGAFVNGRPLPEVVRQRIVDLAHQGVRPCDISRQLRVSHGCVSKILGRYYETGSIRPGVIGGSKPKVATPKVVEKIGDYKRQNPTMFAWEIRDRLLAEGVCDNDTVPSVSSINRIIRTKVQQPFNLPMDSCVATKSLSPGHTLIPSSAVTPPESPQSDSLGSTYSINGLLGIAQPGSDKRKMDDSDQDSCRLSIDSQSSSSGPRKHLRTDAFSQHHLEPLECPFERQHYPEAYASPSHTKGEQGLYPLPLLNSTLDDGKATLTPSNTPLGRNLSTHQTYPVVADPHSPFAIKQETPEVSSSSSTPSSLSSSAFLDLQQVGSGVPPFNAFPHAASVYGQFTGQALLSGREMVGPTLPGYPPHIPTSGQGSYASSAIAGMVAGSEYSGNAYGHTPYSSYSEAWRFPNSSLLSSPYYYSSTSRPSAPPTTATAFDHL

[5] = OVCAR-3 cell viability loss – plate reader, dry powder samples, PAX8 inhibitor project, dose response (AID 743044); assay type: functional, cell-based
[6] = COV434 cell viability loss – plate reader, dry powder, SA7, cytotoxicity control for PAX8 inhibitor project, dose response (AID 743145); assay type: functional, cell-based
[7] = OVCAR8 cell viability loss – plate reader, dry powder samples, PAX8 project, dose response (AID 743197); assay type: functional, cell-based; conditions: OVCAR-8
[8] = inhibitors acting on PAX2 in cells – cell-based, plate reader, dry powder samples, selectivity assay for PAX8 inhibitor project, dose response (AID 743048); assay type: functional;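 also: HEK293 cells carrying a WT1 promoter luciferase reporter driven by expressed Pax2; potency is for inhibition of Pax2 driven reporter signal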
[9] = PAX8-dependent cell viability loss – plate reader, dry powder, dose response (AID 743049); assay type: functional, cell-based
[10] = PAX5 cellular inhibition readout – cell-based, plate reader, dry powder samples, selectivity assay for PAX8 inhibitor project, dose response (AID 743047); assay type: functional;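 also: HEK293 cells carrying a Pax5 driven CD19 promoter luciferase reporter; potency of inhibitors that lower reporter luminescence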
[11] = target: T1, Protein Tat (Human immunodeficiency virus type 1 group M subtype B (isolate HXB2)(HIV-1), UniProt P04608); assay type: functional;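 also: tat binding to TAR RNA read out by fluorescence polarization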
T1 sequence (P04608 whole entry): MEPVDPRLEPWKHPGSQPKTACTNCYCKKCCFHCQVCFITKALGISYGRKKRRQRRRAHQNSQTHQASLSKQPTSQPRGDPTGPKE

[12] = target: Glutathione-S-transferase (Schistosoma japonicum, UniProt Q26513); test: GST-antibody interaction or FRET quenching – biochemical, TR-FRET, artefact control for Vif-APOBEC3G degradation inhibitor project, dose response (AID 1117362); assay type: functional
Sequence of Glutathione-S-transferase (Q26513 whole entry): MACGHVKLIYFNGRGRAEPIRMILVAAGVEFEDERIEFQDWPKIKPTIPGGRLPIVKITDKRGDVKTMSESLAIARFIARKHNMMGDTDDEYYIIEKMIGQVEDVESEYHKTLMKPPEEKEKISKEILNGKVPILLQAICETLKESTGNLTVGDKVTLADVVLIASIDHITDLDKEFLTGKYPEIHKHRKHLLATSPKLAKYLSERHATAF

[13] = target: T2, DNA repair protein RAD52 homolog (Homo sapiens, UniProt P43351); assay type: functional, biochemical
T2 sequence (P43351 whole entry): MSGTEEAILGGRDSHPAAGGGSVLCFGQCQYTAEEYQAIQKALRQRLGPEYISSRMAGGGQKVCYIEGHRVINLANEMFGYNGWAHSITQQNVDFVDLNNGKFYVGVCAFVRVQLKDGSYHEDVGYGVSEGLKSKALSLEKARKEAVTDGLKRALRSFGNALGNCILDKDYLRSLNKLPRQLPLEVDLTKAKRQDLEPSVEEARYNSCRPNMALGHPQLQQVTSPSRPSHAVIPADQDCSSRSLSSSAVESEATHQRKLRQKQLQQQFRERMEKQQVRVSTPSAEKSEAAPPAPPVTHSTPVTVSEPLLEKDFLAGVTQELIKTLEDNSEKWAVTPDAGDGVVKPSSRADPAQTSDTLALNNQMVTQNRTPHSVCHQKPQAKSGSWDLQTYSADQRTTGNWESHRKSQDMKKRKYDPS

[14] = target: Phospholipase D1 (Homo sapiens, UniProt Q13393); test: PLD1 Cellular Concentration Response Study.; assay type: functional
Sequence of Phospholipase D1 (Q13393 whole entry): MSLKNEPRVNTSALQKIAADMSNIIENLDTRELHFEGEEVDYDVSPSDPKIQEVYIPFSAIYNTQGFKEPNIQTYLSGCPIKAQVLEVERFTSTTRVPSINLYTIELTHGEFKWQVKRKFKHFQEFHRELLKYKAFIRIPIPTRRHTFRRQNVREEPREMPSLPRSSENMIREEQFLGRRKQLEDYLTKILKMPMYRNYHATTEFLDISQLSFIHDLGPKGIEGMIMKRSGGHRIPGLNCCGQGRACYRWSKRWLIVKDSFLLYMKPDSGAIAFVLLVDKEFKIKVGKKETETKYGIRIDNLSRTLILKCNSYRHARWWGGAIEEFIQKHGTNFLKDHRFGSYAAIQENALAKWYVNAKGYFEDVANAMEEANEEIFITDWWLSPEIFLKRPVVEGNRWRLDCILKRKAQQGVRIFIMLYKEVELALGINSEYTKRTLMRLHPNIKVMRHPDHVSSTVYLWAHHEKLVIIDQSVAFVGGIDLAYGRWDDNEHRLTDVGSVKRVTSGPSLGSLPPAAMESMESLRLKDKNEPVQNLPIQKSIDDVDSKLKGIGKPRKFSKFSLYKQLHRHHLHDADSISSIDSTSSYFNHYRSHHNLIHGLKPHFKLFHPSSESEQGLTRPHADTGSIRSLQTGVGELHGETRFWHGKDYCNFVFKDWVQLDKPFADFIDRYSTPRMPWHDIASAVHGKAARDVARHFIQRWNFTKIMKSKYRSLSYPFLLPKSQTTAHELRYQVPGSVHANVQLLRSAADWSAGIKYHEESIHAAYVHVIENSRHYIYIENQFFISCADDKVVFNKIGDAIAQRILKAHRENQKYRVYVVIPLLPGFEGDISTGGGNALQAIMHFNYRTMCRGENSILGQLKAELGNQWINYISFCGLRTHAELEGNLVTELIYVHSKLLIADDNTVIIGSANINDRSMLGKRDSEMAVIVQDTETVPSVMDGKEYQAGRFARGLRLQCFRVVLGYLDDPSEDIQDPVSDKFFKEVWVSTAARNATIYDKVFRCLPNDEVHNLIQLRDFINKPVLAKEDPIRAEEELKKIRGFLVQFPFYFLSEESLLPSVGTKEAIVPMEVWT

[15] = target: Phospholipase D2 (Homo sapiens, UniProt O14939); test: PLD2 Cellular Concentration Response Study.; assay type: functional
Sequence of Phospholipase D2 (O14939 whole entry): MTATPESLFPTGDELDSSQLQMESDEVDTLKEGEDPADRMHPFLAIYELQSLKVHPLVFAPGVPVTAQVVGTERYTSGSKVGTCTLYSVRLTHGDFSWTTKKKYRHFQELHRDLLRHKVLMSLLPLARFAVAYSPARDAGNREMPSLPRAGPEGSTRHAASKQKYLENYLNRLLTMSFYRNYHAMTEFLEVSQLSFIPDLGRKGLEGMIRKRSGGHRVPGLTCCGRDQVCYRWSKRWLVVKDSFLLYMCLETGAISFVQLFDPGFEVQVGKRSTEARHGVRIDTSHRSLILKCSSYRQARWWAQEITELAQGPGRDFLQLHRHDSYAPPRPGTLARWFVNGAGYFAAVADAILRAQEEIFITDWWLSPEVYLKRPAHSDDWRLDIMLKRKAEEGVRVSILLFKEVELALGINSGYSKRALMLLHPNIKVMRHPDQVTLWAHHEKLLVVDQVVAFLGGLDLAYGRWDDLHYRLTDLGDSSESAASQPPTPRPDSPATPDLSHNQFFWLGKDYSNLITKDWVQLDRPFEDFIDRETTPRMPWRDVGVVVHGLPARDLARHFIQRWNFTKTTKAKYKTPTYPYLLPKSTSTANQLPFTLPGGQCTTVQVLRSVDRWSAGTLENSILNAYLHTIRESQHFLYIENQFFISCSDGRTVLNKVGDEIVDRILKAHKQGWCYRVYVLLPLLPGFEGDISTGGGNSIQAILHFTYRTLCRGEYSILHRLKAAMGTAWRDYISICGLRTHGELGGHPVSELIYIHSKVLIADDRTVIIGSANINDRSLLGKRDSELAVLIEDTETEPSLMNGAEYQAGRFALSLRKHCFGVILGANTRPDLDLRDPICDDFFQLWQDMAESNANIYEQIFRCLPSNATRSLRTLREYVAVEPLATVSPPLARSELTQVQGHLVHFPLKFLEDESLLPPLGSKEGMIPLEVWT

[16] = Dd2 malaria parasite growth inhibition potency – SYBR Green, dry powder samples, dose response (AID 1159566); assay type: functional, cell-based;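 also: potency for growth inhibition with lower SYBR green DNA signal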
[17] = P. falciparum Dd2 growth inhibitors, dose response, SYBR Green, cherry-picked samples (AID 1159567); assay type: functional, cell-based
[18] = growth inhibition of yeast DHODH-expressing 3D7 parasites – SYBR Green, dry powder samples, dose response (AID 1159570); assay type: functional, cell-based;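 also: parasite growth measured after 72 hours of compound exposure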
[19] = growth inhibition of PfATP4-mutant resistant parasites – NITD609-resistant line, SYBR Green, dry powder, dose response (AID 1159571); assay type: functional, cell-based;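 also: parasites synchronized at ring stage by sorbitol before testing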

For `N#C[C@H]1[C@@H](c2ccc(C#Cc3ccc(F)cc3)cc2)[C@H](CO)N1C(=O)C1CCCC1`, the AC50 [1] was 26.5 µM (active), the AC50 [2] was 33.3 µM (active) and the AC50 [3] was > 70 µM (inactive). The AC50 [4] was 13.4 µM (active), the AC50 [5] was 34.5 µM (active) and the AC50 [6] was 26.2 µM (active). The AC50 [7] was > 70 µM (inactive), the AC50 [8] was 9.19 µM (active) and the AC50 [9] was 18.6 µM (active). The AC50 [10] was 8.42 µM (active).
With `Nc1ccc(N2CCN(CCCCN3C(=O)C4CCCN4C3=O)CC2)cc1` (centres undefined) the IC50 [11] was > 100 µM (active), the IC50 [12] was 3.15 µM (active) and the AC50 [13] was 1.29 µM (active).
In the case of `O=C(NCCN1CCC2(CC1)C(=O)NCN2Cc1cccnc1)c1cc2cc(F)ccc2[nH]1`, the IC50 [14] is reported as 3.15 µM (active) and the IC50 [15] is reported as 0.12 µM (active).
With `COc1ccc2c3c(n(C)c2c1)[C@@H](CO)N(C(=O)c1ccc(F)cc1)CC31CCN(C(=O)Nc2ccc(F)cc2)CC1` the AC50 [16] was 0.795 µM (active), the AC50 [17] was 1.89 µM (active) and the AC50 [18] was 1.04 µM (active). The AC50 [19] was 1.06 µM (active).
